The structures appear in SMILES notation. “And” between values parts separate entries of the source, which are not always exact repeats. Identical values can stand only once. “Also recorded” adds a separate entry of the source.

Series [1] relates to Arabidopsis WT seedlings on solid MS media. The experiment in a line: Stomatal development bioassay on solid media. The note with it: for MI (%) meristemoid index / SI (%) stomatal index: solid culture, cotyledon abaxial epidermis, individual seedlings. It counts as in vivo. The method, then: Arabidopsis accession Columbia (Col-0) was used as wild-type. […] Their genotype and transcript reduction were confirmed. The presence of transgenes/mutant alleles were confirmed by genotyping. For liquid culture with Stomidazolone (AYSJ929, compound 3), the analogs (AYSJ1059 (compound 5) and AYSJ1061 (compound 6)), degraded compound lzx103 (compound 4), and SIM3* (compound 7), all compounds were dissolved in dimethyl sulfoxide (DMSO, Molecular biology grade, Fujifilm Wako, Japan 046-21981), Col-0 seeds were sown in 96-well plates (TL5003; True Line) containing 95 μL of 1/2 MS media containing 0.5% sucrose with rotary shaking at 140 rpm under continuous light at 22 °C. Five μL of compounds were dissolved in DMSO at 10 mM and diluted with liquid 1/2 MS media to 1 mM and added on 1-day-old seedlings (final concentration, 50 μM). Seedlings were incubated for 8 days, and at day 9 seedling abaxial cotyledons were observed through confocal microscopy. For liquid culture of scrm-D_S343 and scrm-D_S423, 1/2 MS liquid media without sucrose was used. For the solid culture, 0, 20, 50 or 100 μM Stomidazolone were solidified with low-melting agarose (5805S, PrimeGelTM Agarose LMT 1-20 K, TAKARA Bio). Briefly, 1/2 MS salt, 0.5% sucrose, and 0.8% low melting agarose were mixed in water and autoclaved. After cooling the medium at around 30 °C, Stomidazolone (500x, dissolved in DMSO) was added and poured into 90 mm petri dishes (Asnol Petri Dish JP φ90 x 15 mm, 3-1491-01, AS ONE). Col-0 seeds were sown on Stomidazolone-containing 1/2 MS agarose media and grown under continuous light for 9 days.
For quantitative analysis of the abaxial leaf epidermis, confocal images were taken on the days after germination as indicated in the Figure legends. Preparation of images was done as described previously[32],[70]. For counting epidermal cell types, stomatal density, stomatal precursor cells (meristemoids), total stomata-lineage cells (stomata and meristemoids) were calculated by counting cell types in an area of 0.4 mm^2 (0.63 mm × 0.63 mm) and plotted as per mm^2. A series of Z-stack confocal images was obtained to obtain images covering the epidermis and capturing GFP/YFP signal from the reporter lines. The area and the number of epidermal cells were quantified by using FIJI-ImageJ. Statistical analyses were performed using R ver. 4.0.2. Sample sizes (n) are indicated and defined in each legend. For the multiple sample comparison, 1-way ANOVA was performed followed by a post hoc Tukey HSD test. For the two-sample comparison, Student’s T-test was performed. Graphs were generated using R ggplot2 package. For all boxplots, each box represents IQR (interquartile range), in which top, middle line, and bottom indicating 75, 50, and 25 percentiles, respectively, and the bar representing maximum to minimal values. Each magenta dot represents jittered individual data point. The datapoints that go beyond the bar are outliers, which are indicated as black dots. If the data point is greater than Q3 + 1.5*IQR (above the third quartile is greater than 1.5 times of the interquartile range) or less than Q1 − 1.5*IQR, that data point is classified as outlier. The color of Boxplot graph was based on ColorBrewer.org. The value of n, the number of each experiment or samples, the means of error bars, and how statistical significance was defined are indicated in a relevant figure legend. See Source Data for quantitative data underlying each figure.

For another series, the target named is T1, DB+SCRM (control yeast) (Arabidopsis thaliana, UniProt Q9LSE2).
T1 construct: expressed in transfected cells; host or cells: yeast strain AH109
T1 sequence (Q9LSE2 1-494): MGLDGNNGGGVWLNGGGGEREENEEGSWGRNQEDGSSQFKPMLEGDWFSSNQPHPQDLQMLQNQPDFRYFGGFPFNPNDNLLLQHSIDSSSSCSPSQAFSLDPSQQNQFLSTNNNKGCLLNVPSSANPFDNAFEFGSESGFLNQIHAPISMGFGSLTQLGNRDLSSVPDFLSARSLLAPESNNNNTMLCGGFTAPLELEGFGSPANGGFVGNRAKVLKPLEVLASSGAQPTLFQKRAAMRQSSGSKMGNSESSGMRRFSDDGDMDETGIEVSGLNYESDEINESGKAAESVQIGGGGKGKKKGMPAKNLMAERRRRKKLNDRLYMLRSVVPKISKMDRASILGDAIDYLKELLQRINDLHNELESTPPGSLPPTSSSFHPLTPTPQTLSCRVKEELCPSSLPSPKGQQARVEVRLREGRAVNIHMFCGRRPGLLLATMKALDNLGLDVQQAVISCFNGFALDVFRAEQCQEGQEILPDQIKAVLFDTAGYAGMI
The experiment in a line: Y2H quantitative α-galactosidase assay, control pair DB+SCRM. Format: cell-based. The note with it: individual replicates, listed as AYSJ929. An excerpt: Supplement 41467_2024_53214_MOESM7_ESM.xlsx, sheet "Fig.6b" | column: a-galactosidase [milliunits /(ml x cell)]

Consider `O=C1C(c2ccccc2)=NC(NS(=O)(=O)c2ccccc2)(c2ccccc2)N1S(=O)(=O)c1ccccc1` (stereo not drawn) [Stomidazolone], for which the “MI (%) meristemoid index” value in series [1] (20 uM) is 2.39% and 0% and 2.612% and 2.336% and 2.778% and 1.339% and 0.4219% and 0.7905%; in series [1] (50 uM), 0% and 2.954% and 0.8658% and 1.852% and 0.4878% and 0.5208% and 2.991%; in series [1] (100 uM), 2.4% and 0.7812% and 3.364% and 2.326% and 0.4717% and 8.069% and 4.2623% and 3.509%. Moreover, the “SI (%) stomatal index” value was 22.3108% and 29.661% and 27.2388% and 24.7664% and 32.1429% and 24.5536% and 35.443% and 19.7628% in series [1] (20 uM); 27.027% and 21.097% and 20.3463% and 25.9259% and 27.9412% and 25.8537% and 27.6042% and 20.9402% in series [1] (50 uM); 20.4% and 25% and 12.844% and 16.2791% and 24.0566% and 14.9856% and 17.377% and 15.4386% in series [1] (100 uM). Moreover, the “effect on seedling growth” value in series [1] (solid media, 100 μM (Supplementary Fig. 2d)) is listed as “subtle growth retardation”. In addition, the “effect on stomatal differentiation (in words)” value in series [1] (solid media, 20, 50, 100 μM (Supplementary Fig. 2a-c)) is listed as “inhibited stomatal differentiation in a dose-dependent manner”. The “effect on seedling morphology / growth” value in series [1] (solid media, 20 and 50 μM (Supplementary Fig. 2d)) is reported as “does not impact; also recorded: does not affect growth”. Also, the a-galactosidase on DB+SCRM (control yeast) (10 µM) was 0.72 milliunits /(ml x cell) and 0.19 milliunits /(ml x cell) and 0.32 milliunits /(ml x cell); at DB+SCRM (control yeast) (50 µM) it was 0.16 milliunits /(ml x cell) and 0.47 milliunits /(ml x cell) and 0.51 milliunits /(ml x cell); on DB+SCRM (control yeast) (100 µM), 0.46 milliunits /(ml x cell) and 0.80 milliunits /(ml x cell) and 0.52 milliunits /(ml x cell).

(Values after article PMC11500415, “Chemical inhibition of stomatal differentiation by perturbation of the master-regulatory bHLH heterodimer via an ACT-Like domain” (Nature Communications, 2024).)
